biological target: T1, APOL1 G2 (Homo sapiens, UniProt O14791, DEL388-389); assay: APOL1-mediated calcium transport (calcium influx) assay, HEK T-REx/GCaMP6f/APOL1 G2 K6.3 cells, FLIPR TETRA; assay type: cell-based; conditions: prevention of calcium influx; geometric mean of at least 2 assay runs; † = average of a technical replicate from a single assay run
T1 construct: expressed in transfected cells; host or cells: HEK293 T-REx clonal line stably expressing GCaMP6f (HEK T-REx/GCaMP6f/APOL1 G2 K6.3), doxycycline induced
T1 sequence (O14791 with tags, fused parts or gaps DEL388-389): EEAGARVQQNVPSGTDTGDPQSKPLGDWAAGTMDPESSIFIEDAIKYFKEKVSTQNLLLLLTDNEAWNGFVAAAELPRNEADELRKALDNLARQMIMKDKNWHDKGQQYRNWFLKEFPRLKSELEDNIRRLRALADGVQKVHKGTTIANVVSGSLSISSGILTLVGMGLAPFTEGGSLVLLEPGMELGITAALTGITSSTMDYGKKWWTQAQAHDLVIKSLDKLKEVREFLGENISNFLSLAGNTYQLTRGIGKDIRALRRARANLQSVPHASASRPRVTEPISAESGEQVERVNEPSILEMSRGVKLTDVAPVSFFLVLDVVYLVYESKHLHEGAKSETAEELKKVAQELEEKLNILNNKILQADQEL
Procedure, shortened: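 A HEK293 T-REx clone stably expressing GCaMP6f had APOL1 G2 induced with doxycycline (20 ng/mL solution added) for 6 h. Cells were then washed into Ca2+-free Tyrode's buffer (pH 7.4) and preincubated with compounds (duplicate 8-point) for 10 min at room temperature. Ca2+ injection to 5 mM final produced FLIPR GCaMP fluorescence, giving AC50 for influx inhibition (geometric mean, ≥2 runs).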

SMILES | AC50 [nM]
Cc1nc2cc(OCCN3CCC4(CC3)C(=O)Nc3ccc(C#N)cc34)cc(C(F)(F)F)c2n1[C@H]1C[C@@](C)(O)C1 [Compound 443, 1′-[2-({2-methyl-1-[(cis)-3-hydroxy-3-methylcyclobutyl]-7-(trifluoromethyl)-1H-1,3-benzodiazol-5-yl}oxy)ethyl]-2-oxo-1,2-dihydrospiro[indole-3,4′-piperidine]-5-carbonitrile] | 2670
C[C@]1(O)C[C@@H](n2cnc3cc(OCCN4CCC5(CC4)C(=O)Nc4ccc(C(F)F)cc45)cc(C(F)(F)F)c32)C1 [Compound 450, 5-(difluoromethyl)-1′-[2-({1-[(cis)-3-hydroxy-3-methylcyclobutyl]-7-(trifluoromethyl)-1H-1,3-benzodiazol-5-yl}oxy)ethyl]-1,2-dihydrospiro[indole-3,4′-piperidin]-2-one] | 2270
C[C@]1(O)C[C@@H](n2cnc3cc(OCCN4CCC5(CC4)C(=O)Nc4c(I)cc(Cl)cc45)cc(C(F)(F)F)c32)C1 [Compound 453, 5-chloro-7-iodo-1′-[2-({1-[(cis)-3-hydroxy-3-methylcyclobutyl]-7-(trifluoromethyl)-1H-1,3-benzodiazol-5-yl}oxy)ethyl]-1,2-dihydrospiro[indole-3,4′-piperidin]-2-one] | 935
C[C@]1(O)C[C@@H](n2cnc3cc(OCCN4CCC5(CC4)C(=O)Nc4ccc(Cl)cc45)cc(F)c32)C1 [Compound 454, 5-chloro-1′-(2-((7-fluoro-1-((cis)-3-hydroxy-3-methylcyclobutyl)-1H-benzo[d]imidazol-5-yl)oxy)ethyl)spiro[indoline-3,4′-piperidin]-2-one] | 473
CC1(O)CC2(CN(c3ncc(OCCN4CCC5(CC4)C(=O)Nc4ccc(Cl)cc45)cn3)C2)C1 [Compound 459, 5-chloro-1′-{2-[(2-{6-hydroxy-6-methyl-2-azaspiro[3.3]heptan-2-yl}pyrimidin-5-yl)oxy]ethyl}-1,2-dihydrospiro[indole-3,4′-piperidin]-2-one] | 370
C[C@]1(O)C[C@@H](N2C(=O)C3(CC3)c3cc(OCCN4CCC5(CC4)C(=O)Nc4ccc(Cl)cc45)cnc32)C1 [Compound 460, 5-chloro-1′-(2-{2′-oxo-1′-[(cis)-3-hydroxy-3-methylcyclobutyl]-1′,2′-dihydrospiro[cyclopropane-1,3′-pyrrolo[2,3-b]pyridin]-5′-yloxy}ethyl)-1,2-dihydrospiro[indole-3,4′-piperidin]-2-one] | 317
[2H]C([2H])([2H])[C@]1(O)C[C@@H](N2C(=O)CCc3cc(OCCN4CCC5(CC4)C(=O)Nc4ccc(Cl)cc45)cnc32)C1 [Compound 461, 5-chloro-1′-[2-({7-oxo-8-[(cis)-3-hydroxy-3-(^2H3)methylcyclobutyl]-5,6,7,8-tetrahydro-1,8-naphthyridin-3-yl}oxy)ethyl]-1,2-dihydrospiro[indole-3,4′-piperidin]-2-one] | 676
C[C@]1(O)C[C@@H](n2ncc3cc(OCCN4CCC5(CC4)C(=O)Nc4ccc(Cl)cc45)cc(C(F)(F)F)c32)C1 [Compound 464, 5-chloro-1′-[2-({1-[(cis)-3-hydroxy-3-methylcyclobutyl]-7-(trifluoromethyl)-1H-indazol-5-yl}oxy)ethyl]-1,2-dihydrospiro[indole-3,4′-piperidin]-2-one] | 1190
C[C@]1(O)C[C@@H](n2ncc3cc(OCCN4CCC5(CC4)C(=O)Nc4ccc(C#N)cc45)cc(C(F)(F)F)c32)C1 [Compound 465, 2-oxo-1′-[2-({1-[(cis)-3-hydroxy-3-methylcyclobutyl]-7-(trifluoromethyl)-1H-indazol-5-yl}oxy)ethyl]-1,2-dihydrospiro[indole-3,4′-piperidine]-5-carbonitrile] | 748
C[C@]1(O)C[C@@H](n2c(=O)[nH]c3cc(OCCN4CCC5(CC4)C(=O)Nc4ccc(Cl)cc45)cc(C(F)(F)F)c32)C1 [Compound 468, 5-chloro-1′-[2-({2-oxo-1-[(cis)-3-hydroxy-3-methylcyclobutyl]-7-(trifluoromethyl)-2,3-dihydro-1H-1,3-benzodiazol-5-yl}oxy)ethyl]-1,2-dihydrospiro[indole-3,4′-piperidin]-2-one] | 867
C[C@]1(O)C[C@@H](n2c(=O)[nH]c3cc(OCCN4CCC5(CC4)C(=O)Nc4ccc(C#N)cc45)cc(C(F)(F)F)c32)C1 [Compound 470, 2-oxo-1′-[2-({2-oxo-1-[(cis)-3-hydroxy-3-methylcyclobutyl]-7-(trifluoromethyl)-2,3-dihydro-1H-1,3-benzodiazol-5-yl}oxy)ethyl]-1,2-dihydrospiro[indole-3,4′-piperidine]-5-carbonitrile] | 1110
